Laboratory results from patent publication US20190015400A1, “Antifungal Compositions” (priority 2017, published 2019).

Legend:
[1] = tested on: C. albicans ATCC 10231 (strain B); test: Time-kill assay, POS and EBA; format: cell-based, Candida albicans; details: drug alone (POS at concentration used in MICcombination; NYT, AMB at 1×MIC), inoculum 10^5
Experimental: (§1) The protocol for time-kill assays followed methods previously described with minor modifications. Yeast cultures were grown overnight in YEPD medium at 35° C. with shaking at 200 rpm. A working stock of fungal cells was made by diluting cultures in 1640 medium to an OD600 of 0.125 (˜1×10^6 CFU/mL). From the working stock, 100 μL of cells was added to 4.9 mL of RPMI 1640 medium in sterile culture tubes, making the starting fungal cell concentration ˜1×10^5 CFU/mL. Drug was then added to the fungal cells. […] Treated fungal cultures were incubated in the culture tubes at 35° C. with 200 rpm shaking for 24 h. Samples were aliquoted from the different treatments at regular time points (0, 3, 6, 9, 12, and 24 h) and plated in duplicate. For each time point, cultures were vortexed, 100 μL of culture was aspirated, and 10-fold serial dilutions were made in sterile ddH2O. From the appropriate dilutions, 100 μL of fungal suspension was spread on PDA plates and incubated at 35° C. for 48 h before colony counts were determined. At 24 h, 50 μL of 1 mM resazurin in phosphate buffered saline (PBS) was added to the treatments and incubated at 35° C. with 200 rpm shaking for 2 h in the dark for visual inspection. […] Experiments were performed in duplicate.

[2] = tested on: C. glabrata ATCC 2001 (strain H); test: MIC and checkerboard assay, azoles + antihistamines; format: cell-based, Candida glabrata
Experimental: (§2) Determination of minimum inhibitory concentration (MIC) values. MIC values were recorded for all antifungals and antihistamines in order to determine the concentration range of compounds to be used in the checkerboard assays.
(§3) The MIC assays were done using the broth microdilution method as described in CLSI document M27-A3 with minor modifications. Yeast cultures were started by picking a colony from a PDA plate stored at 4° C. The colonies were grown in YEPD medium overnight at 35° C. with shaking at 200 rpm. In a 96-well plate compounds were diluted lengthwise along the plate in serial 2-fold dilutions in the RPMI 1640 medium. The yeast cultures were diluted in RPMI 1640 medium to an OD600 within the range of 0.12 and 0.15 (˜1×10^6 cells/mL). The fungal cells were further diluted by taking 25 μL of fungal cells and adding them to 10 mL of RPMI 1640 medium before adding 100 μL to plate (200 μL total volume). The plates were incubated at 35° C. for 48 h. Visual inspection of the wells for no growth was used to determine the MIC. All compounds were tested in duplicate (TABLES 6 and 7).
Checkerboard assays were done as previously described to determine the fractional inhibitory concentration index (FICI). 2-fold dilutions of the azole drug were made in RPMI 1640 medium lengthwise along the plate. For the antihistamine, 2-fold serial dilutions were made in sterile tubes with RPMI 1640 medium, then aliquoted into the plate. […] The maximal amount was used in the checkerboard assays if complete inhibition was not observed in the MIC assays. Cultures were started by picking a colony from a plate and growing in YEPD medium overnight at 35° C. with shaking at 200 rpm. Cultures were diluted in RPMI 1640 medium to an OD600 between 0.12 and 0.15 (˜1×10^6 cells/mL). Cells were then further diluted by taking 25 μL of cell suspension and adding to 10 mL of RPMI 1640 medium. After the drugs were added to the plate with 100 μL of medium, 100 μL of fungal cells were added. Plates were incubated at 35° C. for 48 h and visual inspection was used to determine wells with no growth. All experiments were carried out in duplicate. The FICI was calculated based on the formula below. The combinational effect of the 2 tested compounds were considered synergistic (SYN) if FICI≤0.5, additive (ADD) if 0.5<FICI≤4, and antagonistic if FICI>4 (TABLES 6-9).

[3] = tested on: C. glabrata ATCC 2001 (strain H); test: Time-kill assay, POS and EBA; format: cell-based, Candida glabrata; details: drug alone (POS at concentration used in MICcombination; NYT, AMB at 1×MIC), inoculum 10^5
Experimental: as §1

[4] = tested on: C. albicans ATCC 64124 (strain F); test: Time-kill assay, azoles + compound 2; format: cell-based, Candida albicans; details: drug alone at the concentration of the 8×MICcombo sample; 24 h
Experimental: Each sample was incubated at 35° C. with shaking at 200 rpm. At various time points (0, 3, 6, 9, 12, and 24 h), 100 μL aliquots were taken from each sample and serially diluted (10-fold dilutions) in sterile ddH2O. 100 μL of each dilution was spread onto PDA plates and incubated at 35° C. for 48 h before colony counts were determined (FIGS. 2A-B). At the end of the 24-h experiment, 50 μL of 1 mM sterile resazurin solution was added to each sample for visual comparison of growth. Each experiment was performed in duplicate.

BEAS-2B cells = test: Mammalian cytotoxicity assay, azoles and compound 2; format: cell-based, human
Excerpt: (§4) David K. Orren (University of Kentucky, Lexington, Ky.) and Prof. David J. Feola (University of Kentucky, Lexington, Ky.), respectively.

HEK-293 cells = test: as above; format: cell-based, human
Excerpt: as §4

[5] = tested on: 13 Candida spp. strains (strains A-M); test: MIC and checkerboard assay, azoles + antihistamines, panel; format: cell-based
Experimental: as §2, §3
Checkerboard assays were done as previously described to determine the fractional inhibitory concentration index (FICI). 2-fold dilutions of the azole drug were made in RPMI 1640 medium lengthwise along the plate. […] The FICI was calculated based on the formula below. […]

[6] = tested on: C. albicans ATCC 64124 (strain F); test: MIC and checkerboard assay, azoles + compounds 1-5; format: cell-based, Candida albicans; details: combination compound 2 + POS
Experimental: These compounds were serially diluted (two-fold dilutions) horizontally on the plate in 100 μL of RPMI medium. A diluted yeast culture (25 μL of a fungal stock with OD600 of 0.125 in 10 mL of RPMI medium, which achieves a final inoculum size of around 1-5×10^3 CFU/mL) was plated across the plate (100 μL per well), making a final volume of 200 μL total per well.
The appropriate range of concentrations for each compound was determined based on their corresponding MIC values against each fungal strain. The inoculum size for yeast and filamentous fungi were the same as in the MIC experiments described in section 2.2. The 96-well plates were incubated at 35° C. for 48 h for yeasts and 72 h for the Aspergillus strain before visual inspection for growth. […] The combinational effect of the two tested compounds were considered synergistic (abbreviated SYN) if FICI<0.5, additive (abbreviated ADD) if 0.5<FICI<4, and antagonistic if FICI>4 (TABLES 2-4).

[7] = POS 16 μg/mL + 32 μg/mL compound 2

CC[C@@H]([C@H](C)O)n1ncn(-c2ccc(N3CCN(c4ccc(OC[C@@H]5CO[C@@](Cn6cncn6)(c6ccc(F)cc6F)C5)cc4)CC3)cc2)c1=O [POS, posaconazole]
CFU/mL at 24 h [1]: 10^8 CFU/mL | MIC ([2]; Nakaseomyces glabratus, ATCC2001, drug alone): > 32 µg/mL | MIC in combination ([2]; combination POS + EBA, MIC of the labelled drug): 0.5 µg/mL | fold decrease in MIC (combination vs alone) ([2]; combination POS + EBA, decrease for the labelled drug): 64 fold | CFU/mL at 24 h [3]: 10^8 CFU/mL | increase in CFU/mL [4]: about 1 order of magnitude | cell survival (BEAS-2B cells; POS 8 μg/mL + 32 μg/mL compound 2): 71±11% | cell survival (BEAS-2B cells; [7]): 38±6% | cell survival (HEK-293 cells; POS 1 μg/mL + 32 μg/mL compound 2): 80±8% | cell survival (HEK-293 cells; [7]): 40±6% | cell survival (HEK-293 cells; drug alone at 16 μg/mL): around 45±12% | MIC ([5]; Candida, drug alone against sensitive fungal strains): 0.25 to 1 µg/mL | MIC in synergistic combinations ([5]; synergistic POS + EBA combinations, MIC of the labelled drug): 0.008 to 0.5 µg/mL | MIC in combination ([6]; MIC of the labelled drug): 4 µg/mL | fold reduction in MIC (combination vs alone) ([6]; reduction for the labelled drug): 8 fold
